What all share (assay type): cell-based
One assay has as its system 293-EBNA cells. Put plainly: IL-8 production in untransfected 293-EBNA cells.
Assay [1] has as its target T1, human EDG-4 (Homo sapiens, UniProt O95136). Briefly: SRE luciferase reporter in 293-EBNA cells, human EDG-4. The settings on record: for Agonist character at EDG-4: conclusion from the reporter assay of Table 2; for Rank (EMax): rank of efficacy among compounds tested. Here is the method: (§1) NE-κB activates gene expression by binding to specific DNA sequences found in the promoters of genes regulated by this inflammation-related transcription factor. […] The SRE reporter was identical to the NF-κB reporter, except that the NF-κB binding sites were replaced with 2 SRE sites. The new reporter was called 2XSREtk-p4Luc-zeo.
(§2) The protocol described in Example 11 for Assay 1 was followed except for the following changes:
(§3) 2) SRE Cotransfection: 0.5 μg of 2XSREtk-p4Luc-zeo reporter DNA and 3.5 μg pcDNA3, EDG-1, EDG-3 (pC3-hE3HP2, different from the clone used in Assay 2 of Example 11) or the newly cloned human EDG-4 (pC3-hedg4#36); NF-κB Cotransfection: 2 μg 6XNFκBtk-p4Luc-zeo reporter DNA and 2.0 μg pcDNA3, EDG-1, EDG-3 (pC3-hE3HP2), or EDG-4 (pC3-hedg4#36). Expression plasmid and reporter plasmid DNA samples were combined and diluted in 750 μl of DMEM/F12 (serum free media) and 20 μl Plus Reagent (Lipofectamine Plus Kit, Life Technologies Cat. 10964-013), and incubated at room temperature for 15 min.
(§4) 1) Media was removed and cells treated with compounds diluted in DMEM/F12 media.
(§5) 2) The cells were treated for 6 hours.
3) Luciferase assay was performed.
(§6) Transfection was accomplished using the Lipofectamine Plus kit (Life Technologies, Cat. 10964-013), using the manufacturer's recommended conditions.
Transfection of EDG-4, expression, pretreatment and treatment of 293-EBNA cells expressing recombinant human EDG-4 was carried out essentially as described in “Example 11. […] Results were tabulated in Microsoft Excel, and analyzed with GraphPad Prism software. […] The luciferase response was expressed as fold response, after subtracting any endogenous response in pcDNA3-transfected cells at a given concentration of compound.
(A reporter such as luciferase makes a cellular process visible.)

Another assay has as its system EDG-7. Put plainly: Calcium microfluorimetry in 293-EBNA cells, EDG-7. The settings on record: 2 and 10 μM, preliminary data. The method, then: Transfections were carried out with EDG receptors in 293-EBNA cells as described above, except that no reporter gene vector was included in the DNA mix. Two days after transfection, cells were harvested by trypsinization and plated at a density of 200,000 cells onto poly-D-lysine-coated coverslips in 100 μl of medium containing 0.5% FBS. After briefly allowing cell attachment to take place, 2 ml of medium without FBS was added and the cells were incubated overnight. The next day, cells were loaded with 5 μM fura-2 AM ester (Molecular Probes) for 60 min at RT, then washed and used for calcium microfluorimetry. […] Treatments were applied using a gravity-fed perfusion apparatus. Fluorescence emission was continuously monitored and recorded with PTI 2.060a software and analyzed with Sigma Plot software. Intracellular calcium concentrations were calculated by interpolation on a ratiometric fluorescence curve generated from fura-2 fluorescence in a calcium dilution series.

The target in assay [2] is T2, rat edg4 (Rattus norvegicus, UniProt P47752). Put plainly: IL-8 ELISA on COS-1 cells transiently transfected with rat EDG-4. Details: expressed in transfected cells. Here is the method: (§7) A. DEAE/Dextran Cell Suspension Transient Transfection.
(§8) Transfection was done as described in Anal Biochem 218:460 (1994).
(§9) 1) 6 ml RSC was added to 4-50 ml tubes. The following amounts of DNA were added:
(§10) 3) 1.5 ml COS-1 cell suspension (5.5×10^6 cells total) in RSC was added to each tube and incubated for 105 min in 37° C. incubator. Tubes were mixed every 20 min.
(§11) 4) Following incubation, tubes were spun for 5 min, cell pellets were washed with DMEM/F12+10% FBS once and then resuspended in 10 ml media. Cells were plated in 24-well plates at 0.2×10^6 cells/well.
(§12) 500 μl treatment volume was used. Supernatants were microfuged at 14,000 rpm for 10 min., transferred to new eppendorf tubes and stored at −20° C. for future IL-8 ELISA determination.
(§13) The procedure as outlined in Procedure for HeLa Cells (D) was followed, using 50 μl of sample per ELISA determination in duplicate.

Assay [3] concerns 293-EBNA cells transfected with empty expression vector pcDNA3. Briefly: SRE luciferase reporter in 293-EBNA cells, empty vector pcDNA3. The method, then:
as §1, §2, §3, §4, §5, §6
293-EBNA cells were grown, lipofected in monolayer cultures, and pretreated as described above for Example 11, assay #1, except that NF-κB and AP-1 reporter-transfected cells were pretreated for 6 hr in medium containing 0.5% FBS, then treated overnight in the same medium with or without 10 μM LPA.

Assay [4] concerns the target T1, human EDG-4. Briefly: NF-κB luciferase reporter in 293-EBNA cells, human EDG-4. The settings on record: human EDG-4 (pC3-hedg4#36); 3 μM; 6 hours. Here is the method: Transient Transfection Protocol for 293-EBNA (Assay 3): The protocol described in Example 11 for Assay 1 was followed except for the following changes: […] 3) 30 μl Lipofectamine Reagent (Lipofectamine Plus Kit) was diluted in 750 μl DMEM/F12. The diluted Lipofectamine was then combined with the DNA/Plus mixture and incubated at room temperature for 15 min. […] 2) Transfected cells were harvested by trypsinization and 50,000 cells per well were plated in 96-well Blackview plates coated with poly D-lysine (Becton Dickinson Labware, Cat. 40640). No cells were plated in the outside wells of the 96-well plate. […] 1) Media was removed and cells treated with compounds diluted in DMEM/F12 media. The following treatments were used for all transfections: […] 2) The cells were treated for 6 hours. 3) Luciferase assay was performed.

Another assay deals with COS-1 cells. Put plainly: IL-8 ELISA on control COS-1 cells (empty vector pcDNA3). The settings on record: COS-1 cells transfected with pcDNA3; S1P 5 μm. Here is the method: as §7, §8, §9, §10, §11, §12, §13
For orientation: An ELISA detects its analyte on a solid surface through an enzyme-linked reagent.

Assay [5] deals with T2, rat edg4. Put plainly: NF-κB-tk-p4Luc luciferase reporter in 293-EBNA cells, rat EDG-4. Details: expressed in transfected cells; host or cells: 293-EBNA.
Procedure: Monolayer Transient Transfection Protocol for 293-EBNA
1) 150 mm plates of 293-EBNA obtained from Invitrogen (Cat. R620-07) with a confluency of ˜80% were used for transfection.
2) 6.6 μg NF-κB-tk-p4Luc reporter DNA and 6.6 μg of pC3-redg4 (expressing rat EDG-4), or pcDNA3 DNA was diluted in 500 μl OPTI-MEM (Gibco; Cat. 31985-062)
3) 96.8 μl Lipofectamine (Gibco; Cat. 18324-020) was diluted in 500 μl of OPTI-MEM.
6) 6 ml OPTI-MEM was added to each transfection tube and this was added to a plate of 293-EBNA cells. The plates were left for 4 hrs at 37° C. in a 5% CO2 incubator.
2) 0.02×10^6 cells were plated per well of a 96-well Blackview plate coated with polyD-lysine. No cells were plated in the outside wells of the 96well plate. Two 96-well plates were seeded for each transfection.
1) Cells were washed with PBS and 140 μl serum-free media (SFM) added to each well. Plates were incubated in 37° C. incubator for 6 hrs.
2) After 6 hrs, media was removed and cells treated with compounds diluted in 0.5% FBS media (140 μl added to each well).
3) Cells were treated for 24 hrs.
1) Luclite kit (Packard; Cat. 6016911) was used for luciferase assay. All reagents were brought to room temperature before use.
3) 50 μl 0.5M HEPES pH 7.8 buffer (1 mM MgCl2, 1 mM CaCl2) was added to all wells of 96-well plate. Black adhesive backing (Polyfitronics) was aligned to the bottom of the viewplate.
4) Luclite substrate was made up by adding 10 ml substrate diluent to 1 vial lyophilized substrate. Reconstituted substrate was kept under a dark container. 50 μl substrate was added to each well.
7) After incubation, plates were counted in a 12-detector Packard Top Count on a program without dark delay.
The above protocol for assay 1 was followed except for the following changes:
2) 3 μg NFκB-tk-p4Luc reporter DNA and 3 μg pC3-hedg1, pC3-hedg3, pC3-redg4, pC3-hedg5 or pcDNA3 DNA was diluted in 240 μl OPTI-MEM (Gibco; Cat. 31985-062)
1) 0.01×10^6 cells were plated per well of a 96-well Blackview plate coated with polyD-lysine. No cells were plated in the outside wells of the 96-well plate.
In assay [6] the test system is Human Umbilical Vein Endothelial Cells (HUVEC). Put plainly: IL-8 ELISA on primary cultured HUVEC treated with lysolipids. The settings on record: 6 hr treatment. Here is the method: Plating, Pretreatment and Treatment of HUVEC
Procedures were followed as detailed above in “Procedure #1 for HeLa Cells” with the following exceptions:
Cells were plated at 20,000 cells/well into 24-well plates. The next day, cells were serum-starved overnight in EBM medium (Clonetics) with 0.5% FBS, and then treated in EBM without FBS for 6 hr with the following lysolipids:
Supematants were collected and IL-8 levels were deternined using ELISA as described previously.

T2 sequence (P47752 whole entry): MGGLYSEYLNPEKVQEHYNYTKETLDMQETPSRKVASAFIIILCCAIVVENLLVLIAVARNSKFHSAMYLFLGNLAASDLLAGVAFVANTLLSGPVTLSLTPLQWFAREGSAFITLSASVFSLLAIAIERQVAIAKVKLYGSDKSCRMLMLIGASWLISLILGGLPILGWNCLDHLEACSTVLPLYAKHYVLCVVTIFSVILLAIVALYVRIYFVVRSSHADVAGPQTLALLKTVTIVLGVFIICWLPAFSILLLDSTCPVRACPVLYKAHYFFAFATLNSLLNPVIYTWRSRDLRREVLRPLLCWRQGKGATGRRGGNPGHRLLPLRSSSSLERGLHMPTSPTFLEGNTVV

Consider `CCCCCCCCCCCCC/C=C/[C@@H](O)[C@@H](N)COP(=O)(O)O` [S1P, sphingosine-1-phosphate], for which, in the assay on 293-EBNA cells, the IL-8 production entry is “no IL-8 production”. On human EDG-4 [1], the “Agonist character at EDG-4” value is given as “full agonists”. In addition, on human EDG-4 [1], the “Rank (EMax)” value is reported as 2. The Qualitative calcium response result in the assay with EDG-7 was “None within 20 min”. In addition, the “Increase in IL-8 release compared to untreated cells” value on rat edg4 [2] (COS-1 cells transfected with EDG-4 expression plasmid, 5 μm, overnight) is recorded as 2 fold. For the same molecule, the “PTX sensitivity of IL-8 response” value at rat edg4 [2] (EDG-4 transfected COS-1 cells, PTX 50 ng/ml) was “pertussis toxin sensitive”. The “SRE response in control cotransfection” value in [3] (3 μM, 6 hours, Assay #3) is reported as “about 1.5 fold”. The “Induction of the NF-κB reporter gene” value on human EDG-4 [4] is 4.5 fold. The “IL-8 response in control cells” value with COS-1 cells is recorded as “No IL-8 response”. Also, the “Increase in luciferase activity (NF-κB reporter)” value on rat edg4 [5] (pC3-redg4, 1 μM, 24 hrs) was 2 fold; at rat edg4 [5] (pC3-redg4, 3 μM, Assay #2) it was 3.5 fold; at rat edg4 [5] (pC3-redg4, 5 μM or 10 μM, 24 hrs), 4-4.5 fold.
For orientation: EC50 means the concentration that produces a half-maximal response. Read a low EC50 as a more potent agent. Take `CCCCCCCCCCCCC/C=C/[C@@H](O)[C@@H](N)COP(=O)([O-])OCC[N+](C)(C)C` [SPC, sphingosylphosphorylcholine]: the EC50 on human EDG-4 [1] (293-EBNA expressing human EDG-4, luciferase after 6 hr, pcDNA3 response subtracted) stood at 880 nM. In addition, at human EDG-4 [1], the “Agonist character at EDG-4” value was “full agonists” and the “Rank (EMax)” value came out at 1. Besides, the “Induction of the SRE reporter gene” value at human EDG-4 [1] (pC3-hedg4#36, 3 μM SPC, 6 hr, Example 15A) was determined as 26.3 fold. At human EDG-4 [1] (relative efficacy, 6 hr), the “EMax (Percent)” value came to 100%. Also, the “Induction of the SRE reporter, control” value in [3] (3 μM SPC, 6 hr, Example 15A) is recorded as “about 2.5 fold”. Further, the “Induction of the NF-κB reporter gene” value at human EDG-4 [4] amounted to 9 fold. In assay [6], the “IL-8 response (qualitative)” value is given as “Marginal increases”. Besides, the “Increase in luciferase activity (NF-κB reporter)” value at rat edg4 [5] (pC3-redg4, 3 μM, Assay #2) was determined as 4 fold. In addition, the “PTX sensitivity of NF-κB reporter response” value on rat edg4 [5] (pC3-redg4, Assay #1) is on record as “PTX-sensitive”. In addition, on rat edg4 [5] (pC3-redg4, Assay #1, 24 hrs), the “NF-κB reporter induction (qualitative)” value is recorded as “induced the reporter gene in EDG-4 expressing cells”.

(Values after US6482609B1, “Isolated human EDG-4 receptor and polynucletide encoding said receptor” (priority 1997, dated 2002).)
